# Assays:
# [1] = system: hypertension attributed to 5/6 nephrectomy; assay: Continuous telemetry blood pressure monitoring after 5/6 nephrectomy with daily H2 inhalation; assay type: in vivo, Lewis rat
# Source text: In order to monitor continuous blood pressure fluctuation, telemetry transmitters were implanted into rats. Specifically, rats were anesthetized with isoflurane, and the left groin was disinfected with 1% chlorhexidine. An incision of about 1.5 cm was made in the left groin, the left femoral artery was exposed, and a telemetry transmitter (HD-S10, Physiotel HD Telemetry, Data Science International) catheter was inserted into the left femoral artery. The tip of the transmitter catheter was placed in the abdominal aorta caudally from the branch of the renal artery. The transmitter body was inserted into a subcutaneous pocket made in the left lower back, and the skin was sutured. All surgical intervention was performed under sterile conditions. In order to elicit renal hypertension, 5/6 nephrectomy was carried out with slight modification to previously described methods (Nephrology (Carlton) 19, 552-561; 10.1111/nep.12279 (2014); J. Am. Soc. Nephrol. 4, 2023-2031 (1994); and Kidney Int. 40, 29-34; 10.1038/ki.1991.175 (1991).). Briefly, rats were anesthetized by isoflurane inhalation (induction at 4% and maintenance at 1.5%), and upper midline laparotomy of about 4 cm was carried out. Surgical operation was performed under a microscope, the left renal artery branch was identified, and selectively ligated with 7-0 silk at a position as close as possible to the left kidney so that macroscopic infarction is caused in about ⅔ of the left renal cortex. In the first pilot research (FIGS. 1a and 2), a high-temperature cautery pen (AA11, Bovie, Tenn., U.S.A.) was used to add the resection of the infarcted portion of the kidney. Subsequently, the right renal artery, the renal vein, and the urinary duct was ligated with 4-0 silk, and the right kidney were resected. The abdominal wall and the skin were closed with a 4-0 nylon thread. The anesthetic time was uniformly 30 minutes in all rats. H2 gas (1.3% H2+21% O2+77.7 N2) and control gas (21% O2+79% N2) were filled into gas cylinders in advance at a factory. The H2 group and the control group were allowed to inhale the H2 gas and the control gas that were mixed in advance. All animals were allowed to inhale the assigned gas at 10 L/minute for 1 hour in an established anesthesia box, and inhaled for an additional three minutes to purge the box (i.e. a total of 63 minutes). In the nephrectomy model and SHR, gas inhalation was repeated every day for 4 weeks and 2 weeks, respectively. In order to investigate the time course necessary for H2 gas to exert therapeutic effect, rats implanted with telemetry (8 weeks-old; 3 for each group) were subjected to 5/6 nephrectomy, and the blood pressure fluctuation was continuously monitored (FIG. 1b). In the first gas inhalation immediately after 5/6 nephrectomy, the blood pressure of the H2 gas group was reduced compared to the control group (117.4±1.8 mmHg vs. 125.6±4.7 mmHg, P=0.04). […] Before the start of inhalation on Day 2, there was no difference in blood pressure between the two groups. […] To examine the anti-hypertensive effect of H2 in more detail, chronic and continuous monitoring of blood pressure using a non-invasive method with a wireless implantable telemetry system (FIG. 5a) was conducted. Gas inhalation was started on the day of 5/6 nephrectomy and continued for 4 weeks. Again, there was no difference in the time course of change in renal function between the two groups.
# [2] = system: hypertension established after 5/6 nephrectomy; assay: Therapeutic effect of delayed H2 inhalation on hypertension established after 5/6 nephrectomy (tail-cuff); assay type: in vivo, Lewis rat; details: N=17
# Description: At about 24 hours after the final gas inhalation of 5/6 nephrectomized rats, blood pressure and heart rate were non-invasively measured using the tail-cuff pressure measurement method (BP-98A, Softron). The hemodynamics parameter was measured three times, and the median was adopted as the representative value. In order to elicit renal hypertension, 5/6 nephrectomy was carried out with slight modification to previously described methods (Nephrology (Carlton) 19, 552-561; 10.1111/nep.12279 (2014); J. Am. Soc. Nephrol. 4, 2023-2031 (1994); and Kidney Int. 40, 29-34; 10.1038/ki.1991.175 (1991).). Briefly, rats were anesthetized by isoflurane inhalation (induction at 4% and maintenance at 1.5%), and upper midline laparotomy of about 4 cm was carried out. Surgical operation was performed under a microscope, the left renal artery branch was identified, and selectively ligated with 7-0 silk at a position as close as possible to the left kidney so that macroscopic infarction is caused in about ⅔ of the left renal cortex. In the first pilot research (FIGS. 1a and 2), a high-temperature cautery pen (AA11, Bovie, Tenn., U.S.A.) was used to add the resection of the infarcted portion of the kidney. Subsequently, the right renal artery, the renal vein, and the urinary duct was ligated with 4-0 silk, and the right kidney were resected. […]
compound,measurement,setting,value
"[2H][2H] [H2 gas, Molecular hydrogen (H2)]",time course of change in renal function between the two groups,"[1]; 5/6 nephrectomy, 4 weeks of gas inhalation",no difference
same,blood pressure before inhalation compared to the control group,"[1]; after Week 1 of daily inhalation, telemetry",began to decrease
same,difference in blood pressure between H2 and control groups when inhalation was stopped,"[1]; after the first gas inhalation, telemetry",immediately disappeared
same,blood pressure in the first gas inhalation,"[1]; first inhalation immediately after 5/6 nephrectomy, telemetry, N=3, P=0.04 vs control (125.6±4.7)",117.4±1.8 mmHg
same,decrease in blood pressure with longer period of gas inhalation vs control 5/6 nephrectomy,"[1]; inhalation from the day of 5/6 nephrectomy for 4 weeks, telemetry, P<0.05",greater decrease
same,difference in blood pressure between the two groups before the start of inhalation on Day 2,"[1]; telemetry, before inhalation, Day 2",no difference
same,duration of hypotensive effect,"[2]; delayed inhalation, one hour daily for 4 weeks",continued through the inhalation duration
same,blood pressure (established hypertension),"[2]; inhalation started 3 weeks after 5/6 nephrectomy, one week after starting H2 inhalation, no statistically significant difference",began to decrease

# From US20210177889A1, “GASEOUS PHARMACEUTICAL COMPOSITION FOR HYPERTENSION THERAPY” (KEIO UNIVERSITY, priority 2019, published 2021)
